Source: patent US7592467B2, “Inhibitors of prolyl endopeptidase” (Probiodrug AG, priority 2005, dated 2009)

Experiments:
[1] = test system: U-343 and SH-SY5Y cells; assay: β-Amyloid ELISA, secreted β-amyloid peptides 1-40 and 1-42; type: cell-based; conditions: Homo sapiens, inhibitor 20 μM, 24 hours, conditioned medium, untreated cells = 100%, cell line and peptide (1-40/1-42) not given, read-out: Extracellular Aβ-concentration, % of control
Experimental: The human glioma cell line, U-343 and the human neuroblastoma cell line, SH-SY5Y were maintained in Dulbecco's modified Eagle's medium (DMEM) containing 10% fetal bovine serum (Gibco BRL, Karlsruhe, Germany) and incubated at 37° C. in a 5% CO2 atmosphere. Culture media contained in general 60 μg/ml gentamycin (Gibco BRL, Karlsruhe, Germany).
To quantify intracellular and extracellular concentrations of 0-amyloid peptides, 1-40 and 1-42, U-343 and SH-SY5Y cells were cultured in 6 well plates (1.5×10^6 cells/well) and treated with specific PEP inhibitors (20 μM each) for 24 hours. For quantitation of secreted β-amyloid peptides the conditioned medium was collected and concentrated by lyophylisation. Likewise, after determination of the cell numbers/well (casy cell counter I, Schärfe System, Reutlingen, Germany), cells were lyzed with cell extraction buffer (Biosource, Solingen, Germany) according to the manufacturer's protocol. The protein concentration was determined by the method of Bradford (1976). Aliquots of 100 μl were used to quantify β-amyloid peptides 1-40 and 1-42 in quadruplicate by ELISA (IBL, Hamburg, Germany) following the manufacturer's instructions. All obtained intracellular and extracellular concentrations were normalized to cell numbers and protein concentration, respectively.
For the calculation of the concentration of β-amyloid peptides 1-40 and 1-42 in the cell culture medium after PEP-inhibitor treatment, the basal concentration of β-amyloid peptides 1-40 and 1-42 in the cell culture medium of untreated cell samples was set to 100%. The results of the measurement of the concentration of β-amyloid peptides 1-40 and 1-42 with PEP-inhibitor treated cells are presented as % of the untreated cell samples.

[2] = test system: human glial U-343 cells; assay: IL-6 ELISA, basal secretion of IL-6; type: cell-based; conditions: inhibitor 20 μM, 24 hours, serum-free medium, untreated control = 100%, read-out: Extracellular IL-6 concentration, % of untreated cells
Experimental: To analyze basal secretion of IL-6, human glial U-343 cells were cultured in 6 well plates (1.5×10^6 cells/well, Greiner) and treated with specific PEP inhibitors as indicated (20 μM each) for 24 hours in serum-free D-MEM medium (invitrogen). Aliquots of 40 μl conditioned medium were used to quantify the amount of secreted IL-6 by an human-specific IL-6 ELISA (Biosource) following the manufacturer's instructions. All data were obtained in quadruplicate. For the calculation of the IL-6 concentration in the cell culture medium after PEP-inhibitor treatment, the basal IL-6 concentration of the cell culture medium of untreated cell samples was set to 100%. The results of the measurement of the IL-6 concentration with PEP-inhibitor treated cells are presented as % of the untreated cell samples.

Row | SMILES | activity at 20 µM [1] [%] | activity at 20 µM [2] [%]
1 | O=C(OCc1ccc([N+](=O)[O-])cc1)c1ccccc1C(=O)c1cccs1 [Example 3] | 141 | 245
2 | O=C(OCc1ccco1)c1ccccc1C(=O)c1cccs1 [Example 13, 2-(Furyl-methyl-oxycarbonyl)-phenylthenon] | 122 | 74.2
3 | O=C(NCCc1ccccc1)c1ccccc1C(=O)c1cccs1 [Example 30] | 205 | 42.3
4 | O=C(OCCc1cccs1)c1ccccc1C(=O)c1cccs1 [Example 14, 2-(Thienyl-ethyl-oxycarbonyl)-phenylthenon] | 200 | 41.4
5 | O=C(OC1Cc2ccccc2C1)c1ccccc1C(=O)c1cccs1 [Example 7, 2-([2,3-Dihydro-1H-indene-2-yl]-oxycarbonyl)-phenylthenon] | 205 | 85.3
6 | O=C(OCc1cccc(C(F)(F)F)c1)c1ccccc1C(=O)c1cccs1 [Example 36] | – | 79.8
7 | O=C(OCCc1ccccc1)c1ccccc1C(=O)c1cccs1 [Example 2] | 214 | 65.5
8 | O=C(NCCc1ccccc1)c1ccccc1C(=O)c1ccco1 [Example 32] | 63.9 | 32
9 | O=C(OCCc1ccc([N+](=O)[O-])cc1)c1ccccc1C(=O)c1cccs1 [Example 5, 2-(4-Nitrophenyl-ethyl-oxycarbonyl)-phenylthenon] | 160 | 102
10 | O=C(OCCN1C(=O)c2ccccc2C1=O)c1ccccc1C(=O)c1cccs1 [Example 10, 2-(Isoindolinyl-1,3-dione-ethyl-oxycarbonyl)-phenylthenon] | 125 | 143
11 | O=C(OCc1cccc([N+](=O)[O-])c1)c1ccccc1C(=O)c1cccs1 [Example 22] | 153 | 103
12 | O=C(OCCc1ccccc1[N+](=O)[O-])c1ccccc1C(=O)c1cccs1 [Example 33] | – | 54.5
13 | O=C(OCCc1cc2ccccc2s1)c1ccccc1C(=O)c1cccs1 [Example 24, 2-(Benzo[b]thiophen-2-yl-ethyl-oxycarbonyl)-phenylthenon] | 165 | 66.9
14 | O=C(OCCCc1ccccc1)c1ccccc1C(=O)c1cccs1 [Example 11] | 192 | 42.4
15 | O=C(OCCc1ccccc1)[C@@H]1CCCC[C@H]1C(=O)c1cccs1 (relative stereo) [Example 27, trans-1-(Thienylcarbonyl)-2-(phenyl-ethyl-oxycarbonyl)-cyclohexane] | 298 | 19.6
16 | O=C(OCCCc1cccs1)c1ccccc1C(=O)c1cccs1 [Example 25] | 197 | 69
17 | O=C(OCCc1ccc2ccccc2c1)c1ccccc1C(=O)c1cccs1 [Example 8] | 165 | 93.7
18 | O=C(NCc1ccccc1)c1ccccc1C(=O)c1cccs1 [Example 29, 2-(Phenylmethyl-amincarbonyl)-phenylthenon] | 109 | 121
19 | O=C(OCCc1ccc(F)cc1)c1ccccc1C(=O)c1cccs1 [Example 43] | – | 29.2
20 | O=C(OCC1c2ccccc2-c2ccccc21)c1ccccc1C(=O)c1cccs1 [Example 4, 2-(Fluorenyl-methyl-oxycarbonyl)-phenylthenon] | 200 | 40.7
21 | O=C(NCCCc1ccccc1)c1ccccc1C(=O)c1cccs1 [Example 31] | 203 | 30
22 | O=C(NC1CC1c1ccccc1)c1ccccc1C(=O)c1cccs1 (stereo not shown) [Example 45] | – | 22

Row | SMILES | activity at 20 µM [1] [%] | activity at 20 µM [2] [%]
23 | CCCCCCOC(=O)c1ccccc1C(=O)c1cccs1 [Example 39] | – | 50.2
24 | O=C(OCCc1ccccc1Cl)c1ccccc1C(=O)c1cccs1 [Example 26] | 207 | 36.6
25 | O=C(OCc1cccc(Cl)c1Cl)c1ccccc1C(=O)c1cccs1 [Example 44] | – | 26.5
26 | O=C(OCCc1ccc(Cl)cc1)c1ccccc1C(=O)c1cccs1 [Example 37] | – | 72.5
27 | O=C(OCCc1ccccc1)[C@H]1CCCC[C@H]1C(=O)c1cccs1 [Example 28] | – | 78.8
28 | O=C(OCc1ccccc1Br)c1ccccc1C(=O)c1cccs1 [Example 40] | – | 36
29 | O=C(OCc1ccccc1[N+](=O)[O-])c1ccccc1C(=O)c1cccs1 [Example 23] | 240 | 109
30 | O=C(OCc1ccccc1)c1ccccc1C(=O)c1cccs1 [Example 1] | 197 | 92.6
31 | O=C(OCc1ccc(Cl)cc1)c1ccccc1C(=O)c1cccs1 [Example 19, 2-(4-Chlorophenyl-methyl-oxycarbonyl)-phenylthenon] | 195 | 35.2
32 | COc1cccc(CCOC(=O)c2ccccc2C(=O)c2cccs2)c1 [Example 35] | – | 46.7
33 | O=C(OCCc1ccsc1)c1ccccc1C(=O)c1cccs1 [Example 17] | 237 | 26.5
34 | O=C(OCc1ccccc1Cl)c1ccccc1C(=O)c1cccs1 [Example 21] | 220 | 62.1
35 | O=C(OCc1cccc(Cl)c1)c1ccccc1C(=O)c1cccs1 [Example 20] | 180 | 49.2
36 | O=C(OCCc1cccc([N+](=O)[O-])c1)c1ccccc1C(=O)c1cccs1 [Example 34] | – | 78.8
37 | O=C(OCc1ccccc1F)c1ccccc1C(=O)c1cccs1 [Example 41] | – | 46.4
38 | Cc1cccc(CCOC(=O)c2ccccc2C(=O)c2cccs2)c1 [Example 6] | 215 | 45.8
39 | O=C(OCCc1cccc(Cl)c1)c1ccccc1C(=O)c1cccs1 [Example 12] | 191 | 53.7
40 | O=C(OCc1ccc(F)cc1)c1ccccc1C(=O)c1cccs1 [Example 42] | – | 32.4
41 | Cc1ccc(CCOC(=O)c2ccccc2C(=O)c2cccs2)cc1 [Example 16, 2-(4-Methylphenylethyl-oxycarbonyl)-phenylthenon] | 180 | 26.7
42 | O=C(OCCc1cccc(F)c1)c1ccccc1C(=O)c1cccs1 [Example 38] | – | 33
43 | O=C(OCCc1cccc(O)c1)c1ccccc1C(=O)c1cccs1 [Example 46] | – | 35.8
44 | O=C(OCCc1ccccc1)c1ccccc1C(=O)c1ccco1 [Example 15, 2-(Phenyl-ethyl-oxycarbonyl)-1-(furylcarbonyl)-benzol] | 144 | 48.2
